The values that follow are results of earlier work, collected in publication PMC12664280, “Integrative transcriptomics and peptidomics approach reveals unexpectedly diverse endogenous secretory peptides in Odorrana grahami frog skin” (BMC Biology, 2025).

Where no end group is shown, it is not given here.

For the first series the following is noted: annotation in words; no reference given, so it comes from the DADP database (table note); ref DADP database; cited from earlier work. An excerpt:
Supplement 12915_2025_2463_MOESM1_ESM.xlsx, sheet "Table S8" | column: Functional effect
For AALRGCWTKSIPPKPCSGKR [Odorranain-B-RA1], the Functional effect result is on record as “antimicrobial”.

On to ATNIPFKVHFRCKAAFC [Ranatuerin-2R-RA1], for which the Functional effect entry was “antimicrobial”.

As to AVNIPFKVHFRCKAAFC [Ranatuerin-2R-RA2], the Functional effect result was “antimicrobial”.

As to DANVENGEDAEDLTDKFIGLMG [Andersonin-6], the Functional effect entry is listed as “immunomodulating”.

As to DCTRWIIGINGRICRD [Nigroain-E-RA], the Functional effect result is listed as “antimicrobial”.

For the sequence “FLPAVIRVAANVLPTAFCAISKKC [Brevinin-1-RAA10]”, the Functional effect result is recorded as “antimicrobial”.

Consider FLPKLFAGIISKNF [Andersonin-Y2], for which the Functional effect result was “antimicrobial”.

Take FLPKLFAKITKKNMAHIR [Andersonin-Y1]: the Functional effect result is on record as “antimicrobial”.

As to FLPPSPWKETFRTS [Odorranain-S-RA], the Functional effect result is on record as “antimicrobial”.

As for FMPILSCSRFKRC [Odorranain-G-RA2], the Functional effect entry is reported as “antimicrobial”.

Regarding GCSRWIIGIHGQICRD [Odorranain-U-RA], the Functional effect result is given as “antimicrobial”.

For the sequence “GFMATAKNVAKNMDVTLLDNLKCKITKAC [Odorranain-F-OA4]”, the Functional effect entry was “antimicrobial”.

As for “GFMDTAKNVAKNEAGNLLDNLKCKITKAC [Odorranain-F-OA3]”, the Functional effect entry is listed as “antimicrobial”.

“GFMDTAKNVAKNMAGNLLDNLKCKITKAC [Odorranain-F-OA1]”: the Functional effect entry is listed as “antimicrobial”.

On to “GFMDTAKNVAKNMAVTLLDNLKCKITKAC [Odorranain-F-RA1]”, for which the Functional effect result is reported as “antimicrobial”.

With GIFGKILGVGKKTLCELSGMC [Nigrocin-1-OA2], the Functional effect entry is reported as “antimicrobial”.

In the case of GIFLKVLGVGKKVLCGVSGLC [Nigrocin-1-OA3], the Functional effect entry is “antimicrobial”.

With “GIFTLIKGAAKLIGKTVAKEAGKTGLELMACKITNQC [Esculentin-2-RA2]”, the Functional effect result is “antimicrobial”.

As for “GILDTFKNMALNAAKSAGVSVLNALSCKLSKTC [Brevinin-2-RA9]”, the Functional effect entry is on record as “antimicrobial”.

As for “GLFSKFAGKGIKDLIFKGVKHIGKEVGMDVIRTGIDVAGCKIKGEC [Esculentin-1-RA8]”, the Functional effect entry is on record as “antimicrobial”.

As to “GLFSKFAGKGIKNFLIKGVKHIGKEVGMDVIRTGIDVAGCKIKGEC [Esculentin-1-RA5]”, the Functional effect result was “antimicrobial”.

Consider “GLFSKFAGKGIKNFLNKGVKHIGKE [Esculentin-1-OA6]”, for which the Functional effect result is on record as “antimicrobial”.

Consider “GLFSKFAGKGIKNLIFKGVKHIGKEVGMDVIRTGIDVAGCKIKGEC [Esculentin-1-RA7]”, for which the Functional effect result is “antimicrobial”.

Take GLFSKFAGKGIVNFLIEGVE [Andersonin-X1]: the Functional effect entry is listed as “antimicrobial”.

With “GLFSKFSGKGIKNFLIKGVKHIGKEVGMDVIRTGIDVAGCKIKGEC [Esculentin-1-OA2]”, the Functional effect result is “antimicrobial”.

“GLFSKFVGKGIKNFLIKGVKHIGKEVGMDVIRVGIDVAGCKIKGVC [Esculentin-1-OA1]”: the Functional effect result is “antimicrobial”.

On to “GLFTKFAGKGIKDLIFKGVKHIGKEVGMDVIRTGIDVAGCKIKGEC [Esculentin-1-RA4]”, for which the Functional effect entry is given as “antimicrobial”.

As for “GLFTLIKGAAKLIGKTTAKEAGKTGKLEMACKITNQC [Esculentin-2-OA2]”, the Functional effect result was “antimicrobial”.

For “GLFTLIKGAAKLIGKTVAKEAGKTGLELMACKITNQC [Esculentin-2-OA3]”, the Functional effect result is recorded as “antimicrobial”.

Take GLFTLIKGAYKLDAPTVACN [Odorranain-J-OA1]: the Functional effect entry is listed as “antimicrobial”.

For GLFTLIKGAYKNDAPTVACN [Odorranain-J-OA2], the Functional effect result was “antimicrobial”.

Take “GLLDGILNANFNAAKSAGTSVLNALSCKLSKTC [Brevinin-2-OA5]”: the Functional effect result is given as “antimicrobial”.

For the sequence “GLLDTFKNLALNAAESAGVSVLNSLSCKLSKTC [Brevinin-2-RA5]”, the Functional effect result is reported as “antimicrobial”.

As for “GLLDTFKNLALNAAKSAGVSVLNSLSCKLSKTC [Brevinin-2-RA11]”, the Functional effect entry was “antimicrobial”.

As to “GLLDTFKNMAINAAHGAGVSVLNALSCKLKKTC [Brevinin-2-OA3]”, the Functional effect result is “antimicrobial”.

For the sequence “GLLDTFKNMALNAAKSAGVSVLNALSCKLSKTC [Brevinin-2-OA2]”, the Functional effect entry was “antimicrobial”.

For “GLLRASSVWGRKYYVDLAGCAKA [Odorranain-W-RA1]”, the Functional effect result is listed as “antimicrobial”.

In the case of GLLSGILGAGKHIVCGLSGLC [Nigrosin-RA2], the Functional effect entry is reported as “antimicrobial”.

Take GLLSGVLGVGKKIVCGLSGLC [Nigrosin-RA3]: the Functional effect result was “antimicrobial”.

In the case of “GVLATVKNLLIGTGDGAAQSVLKTLSCKLSNDC [Brevinin-2-OA6]”, the Functional effect entry is “antimicrobial”.

In the case of “GVLATVKNLLNGTGDGAAQSVLKTLSCKLSNDC [Brevinin-2-OA8]”, the Functional effect entry was “antimicrobial”.

As for “GVLGTVKDLLIGAGKSAAQSTLKTLSCKISNDC [Brevinin-2-OA7]”, the Functional effect entry is listed as “antimicrobial”.

As for “VIPFVASVAAEMMQHVYCAASKKC [Odorranain-P-RA2]”, the Functional effect result is listed as “antimicrobial”.

Take “VIVFVASVAAEMMQHVYCAASKKC [Odorranain-P-RA1]”: the Functional effect entry is listed as “antimicrobial”.

As to VVKCSYRLGSPDSQCN [Odorranain-A-RA7], the Functional effect entry was “antimicrobial”.

The series is the same for the next values; noted with them: annotation in words; ref [4]; cited from earlier work.
ENMFNIKSSVESDSFWG [Andersonin-N1]: the Functional effect result is recorded as “Insulin-Releasing, immunomodulating”.

Consider FIFPKKNIINSLFGR [Andersonin-I1], for which the Functional effect entry is “antimicrobial, Insulin-Releasing, immunomodulating”.

Consider GLLSGINAEWPC [OA-GL12], for which the Functional effect entry is “wound-healing”.

As to QMFHLWYLRHMKNKKPMA [Andersonin-X], the Functional effect entry is given as “Insulin-Releasing, immunomodulating”.

With TSRCIFYRRKKCS [Andersonin-G], the Functional effect result was “antimicrobial,Insulin-Releasing”.

With “VAIYGRDDRSDVCRQVQHNWLVCDTY [Andersonin-M3]”, the Functional effect entry is recorded as “immunomodulating”.

On to VVKFSYRKGSPAPQKN [Odorranain-A-OA12], for which the Functional effect result is “immunomodulating”.

The conditions of a further series: previously reported ESPs in Odorrana grahami, Table S1; cited from earlier work. An excerpt:
Supplement 12915_2025_2463_MOESM1_ESM.xlsx, sheet "Table S1" | column: Previously reported ESPs in Odorrana grahami
For the sequence DDASDRAKKFYGLM [ranamargarin], the “Functional effect: myotropic activities” value is “myotropic activities”.

Consider DDTEDLANKFIGLM [tachykinin_OG1], for which the “Functional effect: myotropic activities” value is “myotropic activities”.

With QNTYRAPQWAVGHLM [odorranain-BLP-5], the “Functional effect: myotropic activities” value is reported as “myotropic activities”.

QRECRAPHWAIGHFM [odorranain-BLP-1]: the “Functional effect: myotropic activities” value was “myotropic activities”.

As for QREYRAPHWAIGHFM [odorranain-BLP-4], the “Functional effect: myotropic activities” value is “myotropic activities”.

QREYRTPHWAIGHFM [odorranain-BLP-3]: the “Functional effect: myotropic activities” value is listed as “myotropic activities”.

Take QSTYRAPQWAVGHLM [odorranain-BLP-2]: the “Functional effect: myotropic activities” value was “myotropic activities”.

RPPGFSPFR [bradykinin]: the “Functional effect: myotropic activities” value is “myotropic activities”.

Still in this series, the particulars now being: previously reported ESPs in Odorrana grahami, Table S1; discovered in brain only; cited from earlier work.
In the case of DYTIRTRLHQESSRKVL [odorranaopin], the “Functional effect: opioid peptide” value is reported as “opioid peptide discovered in brain ONLY”.
